Measured values as given in patent US20240101600A1, “FIBROBLAST GROWTH FACTOR RECEPTOR (FGFR)-TARGETING ANTAGONISTIC SHORT PEPTIDE” (WENZHOU MEDICAL UNIVERSITY, priority 2019, published 2024).
Where no end group is shown, it is not given here.

Tests used:
Assay type in all cases: cell-based
Hela229 cells = test: MTT viability, Hela229 cells; conditions: 48 h with bFGF
Protocol: (§1) In vitro anti-tumor activity of a short peptide compound P48 Hela229 (1500 cells/100 μl), B16-F10 (1000 cells/100 μl), NCI-H460 (4000 cells/100 μl) and SGC7901 (4000 cells/100 μl) cells were inoculated in 96-well plates. After incubated overnight adherently, the original medium was replaced with a Dulbecco's modified eagle medium (DMEM) containing 0.1% fetal bovine serum (FBS) or a Roswell Park Memorial Institute 1640 (RPMI-1640) medium containing 0.1% FBS, and culture was continued for 24 h. A mixture of P48 and bFGF, or bFGF alone were added into corresponding wells, and incubated for 48 h; an MTT solution (5 mg/mL) prepared by PBS was added to the cells in each well at 37° C., and treated for 4 h. The MTT was removed by aspiration, 150 μL of DMSO was added to each well, shaking was conducted for 10 min, and an optical density (OD) value was quantified with a microplate reader (SpectraMax M2/M2e, Molecular Devices, Sunnyvale, USA) at a wavelength of 490 nm. The percentage of drug growth inhibition rate was calculated by comparing with the bFGF group. […] The experimental procedure was as follows: 10% FBS-containing medium (500 μl) was added to a lower surface of a transwell insertion chamber, the cells together with the drug were inoculated into an upper chamber, and cultured with a serum-free medium (200 μl). […]

B16-F10 cells = test: MTT viability, B16-F10 cells; conditions: 48 h with bFGF
Protocol: as §1

NCI-H460 cells = test: MTT viability, NCI-H460 cells; conditions: 48 h with bFGF
Protocol: as §1

FGFR1 [1] = biological target: FGFR1 (Homo sapiens, UniProt P11362); test: Western blot of bFGF-induced FGFR1 activation in HEK-293 cells; set-up: endogenous in cells; host or cells: HEK-293; conditions: P48 pretreatment 10 min, bFGF 15 min
Protocol: (§2) Human embryonic kidney cells HEK-293, fibroblasts MEF-WT and Balb/c 3T3 were inoculated into 6-well plates, respectively. After growing adherently overnight, the cells were pretreated with P48 for 10 min or with AZD4547/PD173074/SSR for 2 h, and incubated with bFGF for 15 min. […] The experimental procedure was as follows: MEF-WT and MEFKO (FGFR1-FGFR2-FRS2a) cells (1×10^6 cells/ml) were inoculated in a 35 mm petri dish. After being adhered to the wall of petri dish overnight, the cells were washed with PBS; FITC-conjugated P48 (1, 10, 100 and 1000 nM) was added, and the cells were incubated in an incubator for 30 min. The cells were immobilized with 1% paraformaldehyde in the dark and washed with PBS. An expression level of the FITC was measured at a fluorescence channel 1 (FL-1) (530 nm), with an excitation wavelength of 488 nm. Data analysis was conducted using CellQuest software (Becton Dickinson).

FGFR1 [2] = biological target: FGFR1 (Mus musculus, UniProt P16092); test: Western blot of bFGF-induced FGFR1 activation in MEF-WT fibroblasts; set-up: endogenous in cells; host or cells: MEF-WT; Balb/c 3T3; conditions: P48 pretreatment 10 min, bFGF 15 min
Protocol: as §2

Sequence of FGFR1 (Mus musculus, UniProt P16092) (P16092 22-822): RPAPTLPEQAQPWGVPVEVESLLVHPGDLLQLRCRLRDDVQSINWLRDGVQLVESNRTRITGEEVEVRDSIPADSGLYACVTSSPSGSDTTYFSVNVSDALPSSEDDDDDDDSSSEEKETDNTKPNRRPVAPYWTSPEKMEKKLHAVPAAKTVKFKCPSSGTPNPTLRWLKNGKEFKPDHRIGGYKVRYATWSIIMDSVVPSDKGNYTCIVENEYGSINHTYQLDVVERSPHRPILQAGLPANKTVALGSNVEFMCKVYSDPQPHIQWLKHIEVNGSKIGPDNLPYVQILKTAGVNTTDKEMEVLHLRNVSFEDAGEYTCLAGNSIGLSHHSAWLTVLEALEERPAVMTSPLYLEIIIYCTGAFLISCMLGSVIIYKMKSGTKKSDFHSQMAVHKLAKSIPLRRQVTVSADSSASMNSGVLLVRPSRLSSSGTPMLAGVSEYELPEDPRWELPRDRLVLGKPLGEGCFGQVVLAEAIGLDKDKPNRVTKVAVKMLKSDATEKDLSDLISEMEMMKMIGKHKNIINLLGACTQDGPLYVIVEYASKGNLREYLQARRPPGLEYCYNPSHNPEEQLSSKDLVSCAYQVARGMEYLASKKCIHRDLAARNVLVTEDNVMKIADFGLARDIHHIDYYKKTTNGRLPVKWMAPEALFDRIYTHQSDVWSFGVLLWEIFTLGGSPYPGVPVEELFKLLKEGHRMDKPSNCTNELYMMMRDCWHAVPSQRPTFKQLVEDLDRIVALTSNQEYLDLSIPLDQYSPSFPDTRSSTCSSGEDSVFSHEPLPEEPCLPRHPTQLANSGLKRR
Sequence of FGFR1 (Homo sapiens, UniProt P11362) (P11362 22-822): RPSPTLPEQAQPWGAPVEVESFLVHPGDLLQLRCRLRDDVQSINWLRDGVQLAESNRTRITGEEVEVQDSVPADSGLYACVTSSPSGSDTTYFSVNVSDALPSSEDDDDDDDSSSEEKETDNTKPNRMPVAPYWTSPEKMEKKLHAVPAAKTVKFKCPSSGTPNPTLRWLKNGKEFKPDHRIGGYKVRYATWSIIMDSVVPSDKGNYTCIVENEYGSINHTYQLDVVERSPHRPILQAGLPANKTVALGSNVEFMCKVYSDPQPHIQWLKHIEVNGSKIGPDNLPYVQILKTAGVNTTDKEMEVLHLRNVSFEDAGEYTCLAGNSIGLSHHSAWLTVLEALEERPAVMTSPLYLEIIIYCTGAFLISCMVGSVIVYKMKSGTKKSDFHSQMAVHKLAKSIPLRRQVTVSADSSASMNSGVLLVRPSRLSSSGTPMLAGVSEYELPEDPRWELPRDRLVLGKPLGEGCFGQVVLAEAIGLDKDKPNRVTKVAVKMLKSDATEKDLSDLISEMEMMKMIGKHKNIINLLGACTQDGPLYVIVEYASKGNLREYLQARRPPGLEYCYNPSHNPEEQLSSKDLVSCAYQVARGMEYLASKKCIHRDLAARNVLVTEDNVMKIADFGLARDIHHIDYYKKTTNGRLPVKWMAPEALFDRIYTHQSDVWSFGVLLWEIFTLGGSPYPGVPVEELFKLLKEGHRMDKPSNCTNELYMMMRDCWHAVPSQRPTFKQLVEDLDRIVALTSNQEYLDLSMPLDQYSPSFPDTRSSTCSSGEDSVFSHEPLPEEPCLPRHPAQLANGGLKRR

Substance: SPPRYPGGGS-NH2 [P48, Ser-Pro-Pro-Arg-Tyr-Pro-Gly-Gly-Gly-Ser-NH2]
- inhibition of cancer cell viability (Hela229 cells): can significantly inhibit the viability of cancer cells
- inhibition of cancer cell viability (B16-F10 cells): can significantly inhibit the viability of cancer cells
- inhibition of cancer cell viability (NCI-H460 cells): can significantly inhibit the viability of cancer cells
- inhibition of FGFR1 activation induced by bFGF (FGFR1 [1]): can inhibit activation of FGFR1 induced by bFGF in a concentration-dependent manner
- inhibition of FGFR1 activation induced by bFGF (FGFR1 [2]): can inhibit activation of FGFR1 induced by bFGF in a concentration-dependent manner
